Assay results: patent US20040082503A1, “Methods for treatment of diabetes using peptide analogues of insulin” (Neurocrine Biosciences, Inc., priority 1998, published 2004)

Assays:
[1] = tested on: Insulin specific NOD T cell clone PD12-4.34; assay: Proliferation of insulin-specific NOD T cell clone PD12-4.34; assay type: cell-based, mouse (NOD); details: 50 μg/ml peptide, 72 h, 3H-thymidine; no antigen 231 cpm
Protocol: (§1) Insulin specific NOD T cell lines were established by culturing lymphocytes isolated from islet-infiltrating populations by in vitro stimulation with either porcine insulin at 25 μg/ml and irradiated NOD islet cell in the presence of irradiated NOD spleen cells as antigen presenting cells and cytokines. To obtain the infiltrating lymphocytes the following procedures were performed (see Wegmann et al., Eur. J. Immunol. 24:1853, 1994): the pancreas from the NOD mouse was digested with collagenase and individual islets were isolated manually. The infiltrating lymphocytes were then obtained by mild trypsin digestion of the islets. The insulin specific T cell lines or clones were propagated by serial stimulation in the presence of NOD spleen cells, porcine insulin and lymphokines. Clones were obtained by limiting dilution of the B chain (9-23) specific T cell lines in the presence of the antigen presenting cells and porcine insulin at 25 μg/ml. Wells with a growing population of cells following limiting dilution were expanded in appropriate medium, and after one cycle of growth were tested for reactivity to the B chain (9-23) peptide of insulin by evaluating the proliferative response.
(§2) Insulin B chain (9-23) (SEQ ID NO:2) specific mouse (NOD) T cell clones were isolated from infiltrated islets as described in Example 2. Peptide analogues with single alanine substitutions were prepared as described in Example 1. The effect of each analogue on T cell proliferation was then evaluated using an assay performed in 96-well flat bottom microtiter plates (see Daniel et al., Eur. J. Immunol. 25:1056, 1995). Briefly 25,000 T cell clones along with 1 million irradiated NOD spleen cells were cultured in the presence of 50 μg/ml of insulin B chain 9-23 peptide or any of the alanine substituted peptides listed below in triplicate sets. The plates were incubated for a total of 72 hours in 7% carbon dioxide atmosphere with a pulse of 1 μCi/well of tritiated thymidine for the last 6-8 hours of culture. Cells were harvested on a glass fiber filter and the associated radioactivity was counted in a liquid scintillation counter. Results are expressed as mean counts per minute of triplicate wells.

[2] = tested on: Insulin specific NOD T cell clone PD12-4.29; assay: Proliferation of insulin-specific NOD T cell clone PD12-4.29; assay type: cell-based, mouse (NOD); details: 50 μg/ml peptide, 72 h, 3H-thymidine; no antigen 789 cpm
Protocol: as §1, §2

[3] = tested on: Insulin specific NOD T cell clone PD12-2.40; assay: Proliferation of insulin-specific NOD T cell clone PD12-2.40; assay type: cell-based, mouse (NOD); details: 50 μg/ml peptide, 72 h, 3H-thymidine; no antigen 682 cpm
Protocol: as §1, §2
(§3) NOD T cell clones were incubated in the presence of 50 μM of either the native B chain (9-23) peptide or NBI-6024. The data in Table 3 represent the mean of triplicate sample±standard error of the mean. Within Table 3, S.I. (Stimulation Index)=proliferation (cpm) in the presence of the peptide/proliferation (cpm) in medium alone.

[4] = tested on: NOD mice (spontaneous diabetes); assay: Reduction of incidence of diabetes in NOD mice; assay type: in vivo, NOD mouse; details: NOD mice, 400 μg s.c. weekly, 13 treatments; neurotensin as control; FIG. 10
[5] = tested on: B chain (9-23) specific mouse T cell clones; assay: Antagonism of T cell proliferation assay (FIG. 2); assay type: cell-based, mouse (NOD); details: varying amounts of analogue
Protocol: FIG. 2 is a graph showing the proliferative response (measured in cpm) of a NOD mouse T cell clone to a native insulin B chain (9-23) peptide in the presence of varying amounts of representative peptide analogues, in which different residues are substituted with alanine, as indicated.
Peptide analogues of B chain (9-23) containing alanine substitutions at residue 12, 13, 15 or 16 or the doubly substituted peptide at positions 16 and 19 (A^16,19; NBI-6024) were prepared as described in Example 1. T cell antagonism was detected by evaluating the ability of the peptide analogues to inhibit T cell proliferation induced by native B chain (9-23) (SEQ ID NO:2). In this assay, antigen presenting cells were first irradiated and then incubated with the competing peptide analogue and the native B chain (9-23) peptide. T cells were then added to the culture. Various concentrations of candidate peptide analogues were included in cultures which were incubated for a total of 4 days. Following this incubation period, each culture was pulsed with 1 μCi of [^3H]-thymidine for an additional 12-18 hours. Cultures were then harvested on fiberglass filters and counted as above. Mean CPM and standard error of the mean were calculated from data determined in triplicate cultures.

[6] = tested on: Insulin specific NOD T cell clone PD12-4.4; assay: Proliferation of insulin-specific NOD T cell clone PD12-4.4; assay type: cell-based, mouse (NOD); details: 50 μg/ml peptide, 72 h, 3H-thymidine; no antigen 350 cpm
Protocol: as §1, §2

[7] = tested on: Insulin specific NOD T cell clone PD6-4.3; assay: Proliferation of insulin-specific NOD T cell clone PD6-4.3; assay type: cell-based, mouse (NOD); details: 50 μg/ml peptide, 72 h, 3H-thymidine; no antigen 163 cpm
Protocol: as §1, §2

[8] = tested on: Insulin B chain (9-23) specific mouse (NOD) T cell clones; assay: Proliferation of insulin-specific NOD T cell clones (summary over clones); assay type: cell-based; details: five separate T cell clones; 50 μg/ml peptide
Protocol: as §1, §2, §3

Substance: Position 13: insulin B chain (9-23) analogue, native E at position 13 substituted with A (SHLVAALYLVCGERG)
- Response (cpm) of T cell clone PD12-4.34 [1]: 179 cpm
- Response (cpm) of T cell clone PD12-4.29 [2]: 891 cpm
- Response (cpm) of T cell clone PD12-2.40 [3]: 519 cpm
- Incidence of diabetes (percent of mice diabetic) [4]: more pronounced
- Inhibition of T cell proliferation induced by native B chain (9-23) [5]: capable of attenuating the response
- Response (cpm) of T cell clone PD12-4.4 [6]: 373 cpm
- Response (cpm) of T cell clone PD6-4.3 [7]: 142 cpm
- Proliferation relative to the 9-23 native peptide of insulin B chain [8]: either a lack of proliferation or significantly reduced proliferation

Substance: Position 10: insulin B chain (9-23) analogue, native H at position 10 substituted with A
- Response (cpm) of T cell clone PD12-4.34 [1]: 356 cpm
- Response (cpm) of T cell clone PD12-4.29 [2]: 15484 cpm
- Response (cpm) of T cell clone PD12-2.40 [3]: 1409 cpm
- Response (cpm) of T cell clone PD12-4.4 [6]: 823 cpm
- Response (cpm) of T cell clone PD6-4.3 [7]: 12507 cpm

Substance: Position 21: insulin B chain (9-23) analogue, native E at position 21 substituted with A
- Response (cpm) of T cell clone PD12-4.34 [1]: 773 cpm
- Response (cpm) of T cell clone PD12-4.29 [2]: 4904 cpm
- Response (cpm) of T cell clone PD12-2.40 [3]: 39087 cpm
- Response (cpm) of T cell clone PD12-4.4 [6]: 7900 cpm
- Response (cpm) of T cell clone PD6-4.3 [7]: 91 cpm

Substance: Position 23: insulin B chain (9-23) analogue, native G at position 23 substituted with A
- Response (cpm) of T cell clone PD12-4.34 [1]: 791 cpm
- Response (cpm) of T cell clone PD12-4.29 [2]: 18422 cpm
- Response (cpm) of T cell clone PD12-2.40 [3]: 75441 cpm
- Response (cpm) of T cell clone PD12-4.4 [6]: 3228 cpm
- Response (cpm) of T cell clone PD6-4.3 [7]: 14304 cpm

Substance: Position 11: insulin B chain (9-23) analogue, native L at position 11 substituted with A
- Response (cpm) of T cell clone PD12-4.34 [1]: 190 cpm
- Response (cpm) of T cell clone PD12-4.29 [2]: 18416 cpm
- Response (cpm) of T cell clone PD12-2.40 [3]: 2594 cpm
- Response (cpm) of T cell clone PD12-4.4 [6]: 474 cpm
- Response (cpm) of T cell clone PD6-4.3 [7]: 14148 cpm

Substance: Position 15: insulin B chain (9-23) analogue, native L at position 15 substituted with A (SHLVEAAYLVCGERG)
- Response (cpm) of T cell clone PD12-4.34 [1]: 191 cpm
- Response (cpm) of T cell clone PD12-4.29 [2]: 809 cpm
- Response (cpm) of T cell clone PD12-2.40 [3]: 1422 cpm
- Response (cpm) of T cell clone PD12-4.4 [6]: 675 cpm
- Response (cpm) of T cell clone PD6-4.3 [7]: 161 cpm
- Proliferation relative to the 9-23 native peptide of insulin B chain [8]: either a lack of proliferation or significantly reduced proliferation

Substance: Position 20: insulin B chain (9-23) analogue, native G at position 20 substituted with A
- Response (cpm) of T cell clone PD12-4.34 [1]: 466 cpm
- Response (cpm) of T cell clone PD12-4.29 [2]: 13736 cpm
- Response (cpm) of T cell clone PD12-2.40 [3]: 38685 cpm
- Response (cpm) of T cell clone PD12-4.4 [6]: 1323 cpm
- Response (cpm) of T cell clone PD6-4.3 [7]: 2440 cpm

Substance: Position 18: insulin B chain (9-23) analogue, native V at position 18 substituted with A
- Response (cpm) of T cell clone PD12-4.34 [1]: 721 cpm
- Response (cpm) of T cell clone PD12-4.29 [2]: 1193 cpm
- Response (cpm) of T cell clone PD12-2.40 [3]: 44785 cpm
- Response (cpm) of T cell clone PD12-4.4 [6]: 225 cpm
- Response (cpm) of T cell clone PD6-4.3 [7]: 234 cpm
- Proliferation relative to the 9-23 native peptide of insulin B chain [8]: either a lack of proliferation or significantly reduced proliferation

Substance: Position 16: insulin B chain (9-23) analogue, native Y at position 16 substituted with A (SHLVEALALVCGERG)
- Response (cpm) of T cell clone PD12-4.34 [1]: 202 cpm
- Response (cpm) of T cell clone PD12-4.29 [2]: 636 cpm
- Response (cpm) of T cell clone PD12-2.40 [3]: 539 cpm
- Inhibition of T cell proliferation induced by native B chain (9-23) [5]: capable of attenuating the response
- Response (cpm) of T cell clone PD12-4.4 [6]: 779 cpm
- Response (cpm) of T cell clone PD6-4.3 [7]: 98 cpm
- Proliferation relative to the 9-23 native peptide of insulin B chain [8]: either a lack of proliferation or significantly reduced proliferation

Substance: Position 17: insulin B chain (9-23) analogue, native L at position 17 substituted with A
- Response (cpm) of T cell clone PD12-4.34 [1]: 4360 cpm
- Response (cpm) of T cell clone PD12-4.29 [2]: 1460 cpm
- Response (cpm) of T cell clone PD12-2.40 [3]: 19321 cpm
- Response (cpm) of T cell clone PD12-4.4 [6]: 332 cpm
- Response (cpm) of T cell clone PD6-4.3 [7]: 553 cpm
- Proliferation relative to the 9-23 native peptide of insulin B chain [8]: either a lack of proliferation or significantly reduced proliferation

Substance: Position 12: insulin B chain (9-23) analogue, native V at position 12 substituted with A (SHLAEALYLVCGERG)
- Response (cpm) of T cell clone PD12-4.34 [1]: 194 cpm
- Response (cpm) of T cell clone PD12-4.29 [2]: 15041 cpm
- Response (cpm) of T cell clone PD12-2.40 [3]: 671 cpm
- Inhibition of T cell proliferation induced by native B chain (9-23) [5]: capable of attenuating the response
- Response (cpm) of T cell clone PD12-4.4 [6]: 1129 cpm
- Response (cpm) of T cell clone PD6-4.3 [7]: 8292 cpm
- Proliferation relative to the 9-23 native peptide of insulin B chain [8]: either a lack of proliferation or significantly reduced proliferation

Substance: Position 19: insulin B chain (9-23) analogue, native C at position 19 substituted with A
- Response (cpm) of T cell clone PD12-4.34 [1]: 689 cpm
- Response (cpm) of T cell clone PD12-4.29 [2]: 6054 cpm
- Response (cpm) of T cell clone PD12-2.40 [3]: 34212 cpm
- Response (cpm) of T cell clone PD12-4.4 [6]: 4295 cpm
- Response (cpm) of T cell clone PD6-4.3 [7]: 7678 cpm

Substance: Position 22: insulin B chain (9-23) analogue, native R at position 22 substituted with A
- Response (cpm) of T cell clone PD12-4.34 [1]: 1555 cpm
- Response (cpm) of T cell clone PD12-4.29 [2]: 12635 cpm
- Response (cpm) of T cell clone PD12-2.40 [3]: 51721 cpm
- Response (cpm) of T cell clone PD12-4.4 [6]: 1313 cpm
- Response (cpm) of T cell clone PD6-4.3 [7]: 6555 cpm
